In the CheMixHub viscosity set:

Assay: xn = mol fraction of the nth substance listed

CC1=CCC2CC1C2(C)C (stereo not drawn) + CCCCCC
298.15 K, 101.33 kPa
Details	viscosity [mPa·s]
x2 = 0.0422	1.207
x2 = 0.06195	1.165
x2 = 0.1087	1.077
x2 = 0.254	0.842
x2 = 0.3759	0.699
x2 = 0.5049	0.577
x2 = 0.6267	0.487
x2 = 0.7168	0.43
x2 = 0.867	0.355
x2 = 0.9244	0.326
x2 = 0.9625	0.31

CCCCCOC(C)=O + CCCCCC
303.15 K, 101.3 kPa
Details	viscosity [mPa·s]
x1 = 0.1004	0.303
x1 = 0.2054	0.3329
x1 = 0.298	0.3626
x1 = 0.403	0.4007
x1 = 0.5009	0.443
x1 = 0.6017	0.4937
x1 = 0.6958	0.5456
x1 = 0.8016	0.6101
x1 = 0.8978	0.6752

CCOC(=O)CC + CCCCCC
303.15 K, 101 kPa
Details	viscosity [mPa·s]
x1 = 0.1832	0.2997
x1 = 0.3971	0.3276
x1 = 0.4989	0.3451
x1 = 0.5988	0.3661
x1 = 0.8005	0.4138

C=CC(=O)OC + CCCCCCC
viscosity [mPa·s], 100 kPa
Details	x1 = 0.1065	x1 = 0.2053	x1 = 0.3084	x1 = 0.4061	x1 = 0.5019	x1 = 0.6048	x1 = 0.703	x1 = 0.8014	x1 = 0.9456
303.15 K	0.367	0.361	0.36	0.362	0.367	0.375	0.387	0.402	0.426
308.15 K	0.337	0.333	0.332	0.336	0.343	0.353	0.365	0.381	0.406
313.15 K	0.329	0.326	0.325	0.326	0.332	0.341	0.352	0.366	0.388

CC(C)CO + CCCCCCC
303.15 K, 101.33 kPa
Details	viscosity [mPa·s]
x2 = 0.1513	1.552
x2 = 0.3016	1.023
x2 = 0.4515	0.724
x2 = 0.6022	0.562
x2 = 0.7374	0.478
x2 = 0.8984	0.421

CCCCCC + CCCCCCC
Details	viscosity [mPa·s]
298 K, 101.33 kPa, x2 = 0.1005	0.3132
298 K, 101.33 kPa, x2 = 0.1957	0.3202
298 K, 101.33 kPa, x2 = 0.3837	0.3365
298 K, 101.33 kPa, x2 = 0.508	0.3471
298 K, 101.33 kPa, x2 = 0.6023	0.3554
298 K, 101.33 kPa, x2 = 0.7154	0.3649
298 K, 101.33 kPa, x2 = 0.8009	0.3727
298 K, 101.33 kPa, x2 = 0.8944	0.3801
298.15 K, 101 kPa, x2 = 0.2069	0.3145
298.15 K, 101 kPa, x2 = 0.2091	0.315
298.15 K, 101 kPa, x2 = 0.2351	0.316
298.15 K, 101 kPa, x2 = 0.2355	0.316
298.15 K, 101 kPa, x2 = 0.2614	0.317
298.15 K, 101 kPa, x2 = 0.2637	0.317
298.15 K, 101 kPa, x2 = 0.2921	0.319
298.15 K, 101 kPa, x2 = 0.2929	0.319
298.15 K, 101 kPa, x2 = 0.3129	0.32
298.15 K, 101 kPa, x2 = 0.3245	0.3205
298.15 K, 101 kPa, x2 = 0.3582	0.323
298.15 K, 101 kPa, x2 = 0.3665	0.3245
298.15 K, 101 kPa, x2 = 0.3904	0.325
298.15 K, 101 kPa, x2 = 0.3907	0.325
298.15 K, 101 kPa, x2 = 0.4267	0.3275
298.15 K, 101 kPa, x2 = 0.4279	0.328
298.15 K, 101 kPa, x2 = 0.4662	0.331
298.15 K, 101 kPa, x2 = 0.4687	0.331
298.15 K, 101 kPa, x2 = 0.5072	0.3345
298.15 K, 101 kPa, x2 = 0.5084	0.3345
298.15 K, 101 kPa, x2 = 0.5516	0.339
298.15 K, 101 kPa, x2 = 0.5526	0.338
298.15 K, 101 kPa, x2 = 0.5986	0.344
298.15 K, 101 kPa, x2 = 0.5994	0.344
298.15 K, 101 kPa, x2 = 0.6496	0.35
298.15 K, 101 kPa, x2 = 0.6507	0.35
298.15 K, 101 kPa, x2 = 0.6856	0.3545
298.15 K, 101 kPa, x2 = 0.6881	0.355
298.15 K, 101 kPa, x2 = 0.7266	0.3595
298.15 K, 101 kPa, x2 = 0.728	0.36
298.15 K, 101.33 kPa, x1 = 0.1059	0.3792
298.15 K, 101.33 kPa, x1 = 0.2067	0.3658
298.15 K, 101.33 kPa, x1 = 0.302	0.358
298.15 K, 101.33 kPa, x1 = 0.406	0.3485
298.15 K, 101.33 kPa, x1 = 0.5051	0.3409
298.15 K, 101.33 kPa, x1 = 0.6064	0.3305
298.15 K, 101.33 kPa, x1 = 0.704	0.3227
298.15 K, 101.33 kPa, x1 = 0.8008	0.3123
298.15 K, 101.33 kPa, x1 = 0.8993	0.3075

CCOC(=O)CC + CCCCCCC
viscosity [mPa·s], 101.3 kPa
Details	308.15 K	318.15 K
x1 = 0.0514	0.356	0.325
x1 = 0.0967	0.36	0.329
x1 = 0.2165	0.369	0.341
x1 = 0.3027	0.376	0.35
x1 = 0.4024	0.386	0.36
x1 = 0.5033	0.396	0.372
x1 = 0.588	0.406	0.383
x1 = 0.7003	0.421	0.397
x1 = 0.7994	0.435	0.408
x1 = 0.9003	0.45	0.421
x1 = 0.9484	0.458	0.428

C=CC(=O)OC + CCCCCCCCCC
viscosity [mPa·s], 100 kPa
Details	x1 = 0.1092	x1 = 0.2047	x1 = 0.3019	x1 = 0.4034	x1 = 0.5015	x1 = 0.5969	x1 = 0.6987	x1 = 0.7998	x1 = 0.8966
303.15 K	0.733	0.683	0.638	0.595	0.561	0.532	0.506	0.483	0.462
308.15 K	0.668	0.625	0.585	0.548	0.519	0.495	0.474	0.456	0.437
313.15 K	0.644	0.604	0.566	0.53	0.501	0.478	0.457	0.438	0.42

CC(C)CO + CCCCCCCCCC
viscosity [mPa·s], 100 kPa
Details	x2 = 0.1004	x2 = 0.1999	x2 = 0.3	x2 = 0.3999	x2 = 0.5002	x2 = 0.5996	x2 = 0.7006	x2 = 0.8	x2 = 0.9
293.15 K	2.872	2.191	1.749	1.456	1.254	1.117	1.024	0.966	0.933
298.15 K	2.471	1.906	–	–	1.131	–	0.941	0.893	0.863
303.15 K	2.139	1.673	1.368	1.165	1.027	0.932	0.869	0.828	0.803
308.15 K	1.863	1.476	1.221	1.051	0.937	0.857	0.806	0.771	0.75
313.15 K	1.632	1.309	1.095	0.954	0.859	0.793	0.749	0.72	0.702
318.15 K	1.436	1.167	0.989	0.871	0.791	0.736	0.699	0.674	0.66
323.15 K	1.272	1.046	0.897	0.798	0.732	0.686	0.654	0.634	0.622

CCCCCC + CCCCCCCCCC
298.15 K, 101.33 kPa
Details	viscosity [mPa·s]
x1 = 0.1074	0.7809
x1 = 0.2074	0.7182
x1 = 0.3029	0.6515
x1 = 0.4046	0.5846
x1 = 0.5041	0.5315
x1 = 0.6061	0.4805
x1 = 0.7053	0.4337
x1 = 0.8034	0.3791
x1 = 0.9036	0.3365
